# Measurements from patent publication US6689773B2, “Uracil substituted phenyl sulfamoyl carboxamides” (BASF Aktiengesellschaft, priority 2000, dated 2004).
# Experiments:
# Assay type in all cases: in vivo
# [1] = system: GLXMA, Soybean, Glycine max, (L.) Merr.; assay: Postemergence herbicidal evaluation (Example 147); conditions: rating scale 0-9, two to three weeks after treatment
# Method in brief: (§1)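 Ratings on a 0–9 scale cover stand, vigor, malformation, size and chlorosis versus untreated controls, scored two to three weeks after treatment and averaged across tests. Plants about two weeks old received a spray of about 0.016–0.032 kg/ha active in acetone/water (80/20) with 1.0% SUN-IT II.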
# [2] = system: TRZAW, Winter wheat, Tritium Aestivum, L. (Winter); assay: Postemergence herbicidal evaluation (Example 147); conditions: rating scale 0-9, two to three weeks after treatment
# Method in brief: as §1
# [3] = system: ALOMY, Blackgrass, Alopecurus myosuroides; assay: Postemergence herbicidal evaluation (Example 147); conditions: rating scale 0-9, two to three weeks after treatment
# Method in brief: as §1
# [4] = system: ABUTH, Velvetleaf, Abutilon theophrasti, Medic.; assay: Postemergence herbicidal evaluation (Example 147); conditions: rating scale 0-9, two to three weeks after treatment
# Method in brief: as §1
# [5] = system: SETVI, Green foxtail, Setaria viridis, (L.)Beau; assay: Postemergence herbicidal evaluation (Example 147); conditions: rating scale 0-9, two to three weeks after treatment
# Method in brief: as §1
# [6] = system: ECHCG, Barnyardgrass, Echinochloa crusgalli, (L.)Beau; assay: Postemergence herbicidal evaluation (Example 147); conditions: rating scale 0-9, two to three weeks after treatment
# Method in brief: as §1
# [7] = system: ZEAMX, Field corn, Zea mays L.; assay: Postemergence herbicidal evaluation (Example 147); conditions: rating scale 0-9, two to three weeks after treatment
# Method in brief: as §1
# [8] = system: DIGSA, Crabgrass, (Hairy) L, Digitaria sanguinalis, (L)Scop; assay: Postemergence herbicidal evaluation (Example 147); conditions: rating scale 0-9, two to three weeks after treatment
# Method in brief: as §1
# [9] = system: CHEAL, Lambsquarters, Chenopodium album, L. Common; assay: Postemergence herbicidal evaluation (Example 147); conditions: rating scale 0-9, two to three weeks after treatment
# Method in brief: as §1
# [10] = system: XANST, Cocklebur, Xanthium strumariam; assay: Postemergence herbicidal evaluation (Example 147); conditions: rating scale 0-9, two to three weeks after treatment
# Method in brief: as §1
# [11] = system: AMBEL, Ragweed, Common, Ambrosia artemiisifolia, L.; assay: Postemergence herbicidal evaluation (Example 147); conditions: rating scale 0-9, two to three weeks after treatment
# Method in brief: as §1
# [12] = system: IPOHE, Morningglory, Ivyleaf, Ipomoea hederacea, (L)Jacq.; assay: Postemergence herbicidal evaluation (Example 147); conditions: rating scale 0-9, two to three weeks after treatment
# Method in brief: as §1
# [13] = system: GLXMA, Soybean, Glycine max, (L.) Merr.; assay: Preemergence herbicidal evaluation (Example 148); conditions: rating scale 0-9, two to four weeks after treatment
# Method in brief: (§2)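 Rate ~0.125–0.250 kg/ha, aqueous acetone spray onto soil post-sowing, pre-emergence. Greenhouse 2–4 wk. Visual injury score vs control; replicates averaged.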
# [14] = system: TRZAW, Winter wheat, Tritium Aestivum, L. (Winter); assay: Preemergence herbicidal evaluation (Example 148); conditions: rating scale 0-9, two to four weeks after treatment
# Method in brief: as §2
# [15] = system: ALOMY, Blackgrass, Alopecurus myosuroides; assay: Preemergence herbicidal evaluation (Example 148); conditions: rating scale 0-9, two to four weeks after treatment
# Method in brief: as §2
# [16] = system: ABUTH, Velvetleaf, Abutilon theophrasti, Medic.; assay: Preemergence herbicidal evaluation (Example 148); conditions: rating scale 0-9, two to four weeks after treatment
# Method in brief: as §2
# [17] = system: SETVI, Green foxtail, Setaria viridis, (L.)Beau; assay: Preemergence herbicidal evaluation (Example 148); conditions: rating scale 0-9, two to four weeks after treatment
# Method in brief: as §2
# [18] = system: ECHCG, Barnyardgrass, Echinochloa crusgalli, (L.)Beau; assay: Preemergence herbicidal evaluation (Example 148); conditions: rating scale 0-9, two to four weeks after treatment
# Method in brief: as §2
# [19] = system: ZEAMX, Field corn, Zea mays L.; assay: Preemergence herbicidal evaluation (Example 148); conditions: rating scale 0-9, two to four weeks after treatment
# Method in brief: as §2
# [20] = system: DIGSA, Crabgrass, (Hairy) L, Digitaria sanguinalis, (L)Scop; assay: Preemergence herbicidal evaluation (Example 148); conditions: rating scale 0-9, two to four weeks after treatment
# Method in brief: as §2
# [21] = system: CHEAL, Lambsquarters, Chenopodium album, L. Common; assay: Preemergence herbicidal evaluation (Example 148); conditions: rating scale 0-9, two to four weeks after treatment
# Method in brief: as §2
# [22] = system: XANST, Cocklebur, Xanthium strumariam; assay: Preemergence herbicidal evaluation (Example 148); conditions: rating scale 0-9, two to four weeks after treatment
# Method in brief: as §2
# [23] = system: AMBEL, Ragweed, Common, Ambrosia artemiisifolia, L.; assay: Preemergence herbicidal evaluation (Example 148); conditions: rating scale 0-9, two to four weeks after treatment
# Method in brief: as §2
# [24] = system: IPOHE, Morningglory, Ivyleaf, Ipomoea hederacea, (L)Jacq.; assay: Preemergence herbicidal evaluation (Example 148); conditions: rating scale 0-9, two to four weeks after treatment
# Method in brief: as §2
smiles,measurement,setting,value
Cn1c(C(F)(F)F)cc(=O)n(-c2cc(C(=O)NS(=O)(=O)NC3CCCC3)c(Cl)cc2F)c1=O [Example 78],Postemergence herbicidal rating GLXMA,[1]; rate 0.016 kg/ha,7.0
same,Postemergence herbicidal rating GLXMA,[1]; rate 0.032 kg/ha,8.0
same,Postemergence herbicidal rating TRZAW,[2]; rate 0.016 kg/ha,5.5
same,Postemergence herbicidal rating TRZAW,[2]; rate 0.032 kg/ha,6.5
same,Postemergence herbicidal rating ALMOY,[3]; rate 0.016 kg/ha,2.0
same,Postemergence herbicidal rating ALMOY,[3]; rate 0.032 kg/ha,2.0
same,Postemergence herbicidal rating ABUTH,[4]; rate 0.016 kg/ha,9.0
same,Postemergence herbicidal rating ABUTH,[4]; rate 0.032 kg/ha,9.0
same,Postemergence herbicidal rating SETVI,[5]; rate 0.016 kg/ha,8.0
same,Postemergence herbicidal rating SETVI,[5]; rate 0.032 kg/ha,9.0
same,Postemergence herbicidal rating ECHCG,[6]; rate 0.016 kg/ha,8.0
same,Postemergence herbicidal rating ECHCG,[6]; rate 0.032 kg/ha,9.0
same,Postemergence herbicidal rating ZEAMX,[7]; rate 0.016 kg/ha,6.5
same,Postemergence herbicidal rating ZEAMX,[7]; rate 0.032 kg/ha,7.0
same,Postemergence herbicidal rating DIGSA,[8]; rate 0.016 kg/ha,5.0
same,Postemergence herbicidal rating DIGSA,[8]; rate 0.032 kg/ha,6.0
same,Postemergence herbicidal rating CHEAL,[9]; rate 0.016 kg/ha,7.0
same,Postemergence herbicidal rating CHEAL,[9]; rate 0.032 kg/ha,9.0
same,Postemergence herbicidal rating XANST,[10]; rate 0.016 kg/ha,9.0
same,Postemergence herbicidal rating XANST,[10]; rate 0.032 kg/ha,9.0
same,Postemergence herbicidal rating AMBEL,[11]; rate 0.016 kg/ha,9.0
same,Postemergence herbicidal rating AMBEL,[11]; rate 0.032 kg/ha,9.0
same,Postemergence herbicidal rating IPOHE,[12]; rate 0.016 kg/ha,9.0
same,Postemergence herbicidal rating IPOHE,[12]; rate 0.032 kg/ha,9.0
same,Preemergence herbicidal rating GLXMA,[13]; rate 0.125 kg/ha,3.0
same,Preemergence herbicidal rating GLXMA,[13]; rate 0.25 kg/ha,5.0
same,Preemergence herbicidal rating TRZAW,[14]; rate 0.125 kg/ha,1.0
same,Preemergence herbicidal rating TRZAW,[14]; rate 0.25 kg/ha,1.0
same,Preemergence herbicidal rating ALMOY,[15]; rate 0.125 kg/ha,1.0
same,Preemergence herbicidal rating ALMOY,[15]; rate 0.25 kg/ha,2.0
same,Preemergence herbicidal rating ABUTH,[16]; rate 0.125 kg/ha,9.0
same,Preemergence herbicidal rating ABUTH,[16]; rate 0.25 kg/ha,9.0
same,Preemergence herbicidal rating SETVI,[17]; rate 0.125 kg/ha,5.0
same,Preemergence herbicidal rating SETVI,[17]; rate 0.25 kg/ha,7.0
same,Preemergence herbicidal rating ECHCG,[18]; rate 0.125 kg/ha,4.0
same,Preemergence herbicidal rating ECHCG,[18]; rate 0.25 kg/ha,7.0
same,Preemergence herbicidal rating ZEAMX,[19]; rate 0.125 kg/ha,0.0
same,Preemergence herbicidal rating ZEAMX,[19]; rate 0.25 kg/ha,1.0
same,Preemergence herbicidal rating DIGSA,[20]; rate 0.125 kg/ha,4.0
same,Preemergence herbicidal rating DIGSA,[20]; rate 0.25 kg/ha,8.0
same,Preemergence herbicidal rating CHEAL,[21]; rate 0.125 kg/ha,9.0
same,Preemergence herbicidal rating CHEAL,[21]; rate 0.25 kg/ha,9.0
same,Preemergence herbicidal rating XANST,[22]; rate 0.125 kg/ha,9.0
same,Preemergence herbicidal rating XANST,[22]; rate 0.25 kg/ha,9.0
same,Preemergence herbicidal rating AMBEL,[23]; rate 0.125 kg/ha,9.0
same,Preemergence herbicidal rating AMBEL,[23]; rate 0.25 kg/ha,9.0
same,Preemergence herbicidal rating IPOHE,[24]; rate 0.125 kg/ha,9.0
same,Preemergence herbicidal rating IPOHE,[24]; rate 0.25 kg/ha,9.0
